Among the data in ChEMBL document CHEMBL1134012, “Synthesis of thiophene-2-carboxamidines containing 2-aminothiazoles and their biological evaluation as urokinase inhibitors” (Bioorg Med Chem Lett, 2001) are Ki values, retold here.

The target of this assay is Urokinase-type plasminogen activator (Homo sapiens, UniProt P00749). Put plainly: In vitro inhibitory activity against Urokinase-type plasminogen activator (microPa).
`CSc1sc(C(=N)N)cc1-c1csc(NCCN2CCCCC2)n1` displayed a Ki of 1600 nM. The value for `CSc1sc(C(=N)N)cc1-c1csc(Nc2ccc(OCc3ccccc3)cc2)n1` was 180 nM. As for `CSc1sc(C(=N)N)cc1-c1csc(Nc2ccccc2Br)n1`, the inhibition constant (Ki) stood at 280 nM. The value for `CSc1sc(C(=N)N)cc1-c1csc(Nc2ccc(Oc3ccc(C(F)(F)F)cn3)cc2)n1` was 910 nM; that for `CSc1sc(C(=N)N)cc1-c1csc(Nc2cccc3ccccc23)n1` was 500 nM. Turning to `CSc1sc(C(=N)N)cc1-c1csc(Nc2ccc(Nc3ccccc3)cc2)n1`, the affinity, expressed as Ki, was 70 nM.

Take `COc1ccc(Nc2nc(-c3cc(C(=N)N)sc3SC)cs2)cc1`: affinity was put at a Ki of 280 nM.

`CSc1sc(C(=N)N)cc1-c1csc(NCc2ccc(C)cc2)n1` registered a Ki of 640 nM. The compound `CSc1sc(C(=N)N)cc1-c1csc(Nc2ccc(Oc3ccccc3)cc2)n1` yielded an inhibition constant (Ki) of 60 nM. The value for `CSc1sc(C(=N)N)cc1-c1csc(Nc2ccc(S(=O)(=O)N3CCCCC3)cc2)n1` was 400 nM; that for `CSc1sc(C(=N)N)cc1-c1csc(Nc2ccc(Oc3ccc(Cl)cc3)cc2)n1` was 110 nM. For `CSc1sc(C(=N)N)cc1-c1csc(Nc2cccc(OCC(N)=O)c2)n1`, the affinity, expressed as Ki, was 1020 nM. As for `CSc1sc(C(=N)N)cc1-c1csc(Nc2ccc(C)cc2Br)n1`, the figure is 430 nM; as for `COc1ccc(OC)c(Nc2nc(-c3cc(C(=N)N)sc3SC)cs2)c1`, 660 nM.

`CSc1sc(C(=N)N)cc1-c1csc(Nc2ccccc2C(C)C)n1` showed an inhibitory constant (Ki) of 700 nM. As for `Cc1sc(C(=N)N)cc1-c1csc(Nc2ccc(Oc3ccccc3)cc2)n1`, the figure is 80 nM; as for `CSc1sc(C(=N)N)cc1-c1csc(Nc2ccc(N(C)C)cc2)n1`, 310 nM; as for `CSc1sc(C(=N)N)cc1-c1csc(Nc2cccc(Cl)c2C)n1`, 440 nM. For the compound `CSc1sc(C(=N)N)cc1-c1csc(N)n1`, the Ki was found to be 3900 nM. As for `Cc1sc(C(=N)N)cc1-c1csc(N)n1`, the figure is 1620 nM; as for `CSc1sc(C(=N)N)cc1-c1csc(Nc2ccc(/N=N/c3ccccc3)cc2)n1`, 180 nM; as for `CSc1sc(C(=N)N)cc1-c1csc(Nc2cccc(C)c2C)n1`, 280 nM. The value for `CSc1sc(C(=N)N)cc1-c1csc(Nc2c(Cl)cccc2Cl)n1` was 1500 nM. As for `CSc1sc(C(=N)N)cc1-c1csc(NC(c2ccccc2)c2ccccc2)n1`, the figure is 1180 nM; as for `CSc1sc(C(=N)N)cc1-c1csc(NCCN2CCOCC2)n1`, 1400 nM; as for `COc1cc(Nc2nc(-c3cc(C(=N)N)sc3SC)cs2)cc(OC)c1OC`, 160 nM. `CSc1sc(C(=N)N)cc1-c1csc(N2CCN(c3ccccc3F)CC2)n1` had an inhibition constant (Ki) of 3060 nM.

Regarding `COc1cccc(Nc2nc(-c3cc(C(=N)N)sc3SC)cs2)c1`, the affinity, expressed as Ki, was 280 nM. The value for `CSc1sc(C(=N)N)cc1-c1csc(Nc2ccc3c(c2)OCO3)n1` was 520 nM; that for `CSc1sc(C(=N)N)cc1-c1csc(NCCCc2ccccc2)n1` was 350 nM; that for `CSc1sc(C(=N)N)cc1-c1csc(Nc2ccc(Cc3ccccc3)cc2)n1` was 180 nM. As for `N=C(N)c1ccc(CS)s1`, the figure is 6000 nM. `CSc1sc(C(=N)N)cc1-c1csc(Nc2ccc(Cl)cc2C)n1` gave a Ki of 280 nM. The value for `CSc1sc(C(=N)N)cc1-c1csc(Nc2ccccc2Cl)n1` was 1460 nM.

Broadly, the Ki is a dissociation constant, usually derived from enzyme kinetics or from competition with a known ligand. Read a low Ki as higher affinity.
